Where two headings read alike, the source gives them in different places.
How the values were obtained:
[1] = molecular target: T1, human NPR1 (Homo sapiens, UniProt P16066); experiment: Cellular cGMP production assay, human NPR1 expressing CHO-K1 cells (CisBio HTRF); type: cell-based; conditions: for AC50: cGMP production, 30 min at 37° C., 12-point dose-response from 30 μM; for Human NPR1 Amax (% of ANP): maximum cGMP production as percentage of the maximum cGMP produced with ANP
T1 construct: host or cells: CHO-K1
T1 sequence (P16066 33-1061): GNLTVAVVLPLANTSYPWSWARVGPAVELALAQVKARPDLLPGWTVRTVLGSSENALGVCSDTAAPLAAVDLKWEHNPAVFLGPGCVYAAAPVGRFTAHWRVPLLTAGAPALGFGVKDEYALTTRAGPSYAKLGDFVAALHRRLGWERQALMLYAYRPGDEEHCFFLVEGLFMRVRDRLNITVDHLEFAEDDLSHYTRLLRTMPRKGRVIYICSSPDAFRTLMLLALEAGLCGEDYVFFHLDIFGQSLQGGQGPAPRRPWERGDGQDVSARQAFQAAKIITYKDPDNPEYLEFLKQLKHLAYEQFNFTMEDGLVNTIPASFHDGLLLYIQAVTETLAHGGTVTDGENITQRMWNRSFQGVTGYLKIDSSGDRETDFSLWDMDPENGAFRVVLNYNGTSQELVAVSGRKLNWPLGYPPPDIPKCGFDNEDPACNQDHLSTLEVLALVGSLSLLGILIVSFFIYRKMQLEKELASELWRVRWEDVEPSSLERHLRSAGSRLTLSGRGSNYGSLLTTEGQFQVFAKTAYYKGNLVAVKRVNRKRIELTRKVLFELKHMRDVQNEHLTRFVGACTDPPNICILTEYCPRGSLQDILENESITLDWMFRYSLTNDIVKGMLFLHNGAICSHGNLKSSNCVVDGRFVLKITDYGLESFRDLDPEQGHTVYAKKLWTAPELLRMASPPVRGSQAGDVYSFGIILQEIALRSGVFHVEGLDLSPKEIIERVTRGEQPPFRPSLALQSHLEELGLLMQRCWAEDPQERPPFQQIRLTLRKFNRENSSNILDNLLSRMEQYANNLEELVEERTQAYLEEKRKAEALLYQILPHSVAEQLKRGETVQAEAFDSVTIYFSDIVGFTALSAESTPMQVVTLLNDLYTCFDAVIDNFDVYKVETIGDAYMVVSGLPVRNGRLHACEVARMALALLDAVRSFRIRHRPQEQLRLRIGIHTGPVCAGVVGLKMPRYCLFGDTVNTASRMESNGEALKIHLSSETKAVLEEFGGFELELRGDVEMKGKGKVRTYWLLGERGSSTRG
How it was run: (§1)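 Read-out was HTRF (excitation 317 nm, emission 665 nm), with cGMP quantified as Delta F against a calibrator standard curve. Beforehand, cells were exposed for 30 min at 37 °C to compound (30 μM top, twelve 3-fold steps) in IBMX-containing PBS/BSA buffer, then lysed.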

[2] = molecular target: monkey NPR1 (Macaca fascicularis, UniProt A0A7N9DBT9); experiment: Cellular cGMP production assay, monkey NPR1 expressing CHO-K1 cells (CisBio HTRF); type: cell-based; conditions: for Monkey NPR1 Amax (% of ANP): maximum cGMP production as percentage of the maximum cGMP produced with ANP
Sequence of monkey NPR1 (A0A7N9DBT9 entry or part of it): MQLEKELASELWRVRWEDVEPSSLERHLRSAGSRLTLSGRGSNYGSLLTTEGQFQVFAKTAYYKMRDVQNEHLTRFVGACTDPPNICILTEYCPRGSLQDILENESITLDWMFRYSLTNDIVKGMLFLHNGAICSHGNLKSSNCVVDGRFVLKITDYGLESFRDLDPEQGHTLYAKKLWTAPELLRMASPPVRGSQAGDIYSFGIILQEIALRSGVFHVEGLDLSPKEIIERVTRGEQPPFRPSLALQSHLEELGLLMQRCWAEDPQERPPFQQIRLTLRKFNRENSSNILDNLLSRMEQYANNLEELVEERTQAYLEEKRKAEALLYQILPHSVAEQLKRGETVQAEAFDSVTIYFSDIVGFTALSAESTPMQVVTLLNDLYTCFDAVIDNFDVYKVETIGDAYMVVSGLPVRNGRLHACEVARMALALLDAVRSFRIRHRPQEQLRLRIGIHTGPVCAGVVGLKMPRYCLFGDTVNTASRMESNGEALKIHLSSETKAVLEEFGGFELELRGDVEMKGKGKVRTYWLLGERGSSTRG
How it was run: as §1

[3] = cGMP production, monkey NPR1 CHO-K1 cells, 30 min at 37° C., 12-point dose-response from 30 μM, read-out: Monkey NPR1 AC50

Row | Structure (SMILES) | AC50 [1] | Human NPR1 Amax (% of ANP) [1] | AC50 [2] | Monkey NPR1 Amax (% of ANP) ([2]; monkey NPR1 CHO-K1 cells) | AC50 [2, 3]
1 | CC[C@@H](Nc1nc2c(c(N[C@@H](CN3C4CCCC3CC4)c3ccccc3)n1)C[C@H](c1ccccc1)CC2)[C@H]1CC[C@H](C(=O)O)CC1 [Compound 49, (1R,4r)-4-((1R)-1-(((6R)-4-(((1R)-2-(8-azabicyclo[3.2.1]octan-8-yl)-1-phenylethyl)amino)-6-phenyl-5,6,7,8-tetrahydroquinazolin-2-yl)amino)propyl)cyclohexane-1-carboxylic acid] | 185 nM | 104.186 % of ANP | 138 nM | 106.033 % of ANP | –
2 | CC[C@@H](Nc1nc2c(c(N[C@@H](CN3CCCCC3)c3cnn(CC)c3)n1)C[C@@H](c1cccc(F)c1)CC2)[C@H]1CC[C@H](C(=O)O)CC1 [Compound 50, (1R,4r)-4-((R)-1-(((S)-4-(((R)-1-(1-ethyl-1H-pyrazol-4-yl)-2-(piperidin-1-yl)ethyl)amino)-6-(3-fluorophenyl)-5,6,7,8-tetrahydroquinazolin-2-yl)amino)propyl)cyclohexane-1-carboxylic acid] | 187 nM | 93.357 % of ANP | – | 107.881 % of ANP | 135 nM
3 | CC[C@@H](Nc1nc2c(c(N[C@@H](CN3CCCCCC3)c3cnn(C)c3)n1)C[C@H](c1ccccc1)CC2)[C@H]1CC[C@H](C(=O)O)CC1 [Compound 51, (1R,4r)-4-((R)-1-(((R)-4-(((R)-2-(azepan-1-yl)-1-(1-methyl-1H-pyrazol-4-yl)ethyl)amino)-6-phenyl-5,6,7,8-tetrahydroquinazolin-2-yl)amino)propyl)cyclohexane-1-carboxylic acid] | 187 nM | 106.105 % of ANP | – | 104.734 % of ANP | 110 nM
4 | CC[C@H]([C@H]1CC[C@H](C(=O)O)CC1)N(C)c1nc2c(c(N[C@@H](CN3C4CCCC3CCC4)c3cnn(CC)c3)n1)C[C@@H](c1cccc(F)c1)CC2 [Compound 52, (1R,4r)-4-((R)-1-(((S)-4-(((R)-2-((1S,5S)-9-azabicyclo[3.3.1]nonan-9-yl)-1-(1-ethyl-1H-pyrazol-4-yl)ethyl)amino)-6-(3-fluorophenyl)-5,6,7,8-tetrahydroquinazolin-2-yl)(methyl)amino)propyl)cyclohexane-1-carboxylic acid] | 188 nM | 97.880 % of ANP | 167 nM | 106.496 % of ANP | –
5 | CC[C@H]([C@H]1CC[C@H](C(=O)O)CC1)N(C)c1nc2c(c(N[C@@H](CN3CCC[C@H](C)C3)c3ccc(=O)n(C)c3)n1)C[C@H](c1cccc(F)c1)CC2 [Compound 53, (1R,4r)-4-((R)-1-(((R)-6-(3-fluorophenyl)-4-(((R)-1-(1-methyl-6-oxo-1,6-dihydropyridin-3-yl)-2-((S)-3-methylpiperidin-1-yl)ethyl)amino)-5,6,7,8-tetrahydroquinazolin-2-yl)(methyl)amino)propyl)cyclohexane-1-carboxylic acid] | 190 nM | 101.185 % of ANP | – | 101.261 % of ANP | 101 nM
6 | CC[C@H]([C@H]1CC[C@H](C(=O)O)CC1)N(C)c1nc2c(c(N[C@@H](CN3CCC[C@H](C(F)F)C3)c3cnn(C)c3)n1)C[C@H](c1cccc(F)c1)CC2 [Compound 54, (1R,4r)-4-((R)-1-(((R)-4-(((R)-2-((S)-3-(difluoromethyl)piperidin-1-yl)-1-(1-methyl-1H-pyrazol-4-yl)ethyl)amino)-6-(3-fluorophenyl)-5,6,7,8-tetrahydroquinazolin-2-yl)(methyl)amino)propyl)cyclohexane-1-carboxylic acid] | 194 nM | 95.979 % of ANP | – | 103.704 % of ANP | 174 nM
7 | CC[C@@H](Nc1nc2c(c(N[C@@H](CN3CCCCC3)c3cnn(C)c3)n1)CN(c1cccc(F)c1)CC2)[C@H]1CC[C@H](C(=O)O)CC1 [Compound 55] | 194 nM | 92.712 % of ANP | – | 93.391 % of ANP | 142 nM
8 | CC[C@@H](Nc1nc2c(c(N[C@@H](CN3CCCCC3)c3cnn(C)c3)n1)C[C@H](c1ccccc1)CC2)[C@H]1CC[C@H](C(=O)O)CC1 [Compound 56, (1R,4r)-4-((R)-1-(((R)-4-(((R)-1-(1-methyl-1H-pyrazol-4-yl)-2-(piperidin-1-yl)ethyl)amino)-6-phenyl-5,6,7,8-tetrahydroquinazolin-2-yl)amino)propyl)cyclohexane-1-carboxylic acid] | 198 nM | 102.955 % of ANP | – | 108.953 % of ANP | 196 nM
9 | CC[C@H]([C@H]1CC[C@H](C(=O)O)CC1)N(C)c1nc2c(c(N[C@@H](CN3C4CCC3CC4)c3cnn(C)c3)n1)C[C@H](c1cccc(F)c1)CC2 [Compound 57, (1R,4r)-4-((R)-1-(((R)-4-(((R)-2-(7-azabicyclo[2.2.1]heptan-7-yl)-1-(1-methyl-1H-pyrazol-4-yl)ethyl)amino)-6-(3-fluorophenyl)-5,6,7,8-tetrahydroquinazolin-2-yl)(methyl)amino)propyl)cyclohexane-1-carboxylic acid] | 199 nM | 101.340 % of ANP | 82 nM | 103.000 % of ANP | –
10 | CC[C@@H](Nc1nc2c(c(N[C@@H](CN3CC4CCC3C4)c3cnn(C)c3)n1)C[C@H](c1ccccc1)CC2)[C@H]1CC[C@H](C(=O)O)CC1 (stereo partly drawn) [Compound 58, (1R,4r)-4-((1R)-1-(((6R)-4-(((1R)-2-(2-azabicyclo[2.2.1]heptan-2-yl)-1-(1-methyl-1H-pyrazol-4-yl)ethyl)amino)-6-phenyl-5,6,7,8-tetrahydroquinazolin-2-yl)amino)propyl)cyclohexane-1-carboxylic acid] | 201 nM | 99.715 % of ANP | – | 95.422 % of ANP | 149 nM
11 | CC[C@@H](Nc1nc2c(c(N[C@@H](CN3C4CCCC3CCC4)c3cnn(C)c3)n1)C[C@H](c1ccccc1)CC2)[C@H]1CC[C@H](C(=O)O)CC1 [Compound 59, (1R,4r)-4-((R)-1-(((R)-4-(((R)-2-((1S,5S)-9-azabicyclo[3.3.1]nonan-9-yl)-1-(1-methyl-1H-pyrazol-4-yl)ethyl)amino)-6-phenyl-5,6,7,8-tetrahydroquinazolin-2-yl)amino)propyl)cyclohexane-1-carboxylic acid] | 205 nM | 99.614 % of ANP | 153 nM | 104.401 % of ANP | –
12 | CC[C@@H](Nc1nc2c(c(N[C@@H](CN3C4CCCC3CC4)c3cnn(C)c3)n1)C[C@H](c1ccccc1)CC2)[C@H]1CC[C@H](C(=O)O)CC1 [Compound 60, (1R,4r)-4-((1R)-1-(((6R)-4-(((1R)-2-(8-azabicyclo[3.2.1]octan-8-yl)-1-(1-methyl-1H-pyrazol-4-yl)ethyl)amino)-6-phenyl-5,6,7,8-tetrahydroquinazolin-2-yl)amino)propyl)cyclohexane-1-carboxylic acid] | 205 nM | 93.233 % of ANP | 99 nM | 106.189 % of ANP | –

Reference: patent US12129246B1, “Hydroquinazoline derivatives for the treatment of a disease or disorder” (Novartis AG, priority 2023, dated 2024)
